In one experiment the target is T1, LBP-8 (Caenorhabditis elegans, UniProt O02324).
T1 sequence (O02324 1-137): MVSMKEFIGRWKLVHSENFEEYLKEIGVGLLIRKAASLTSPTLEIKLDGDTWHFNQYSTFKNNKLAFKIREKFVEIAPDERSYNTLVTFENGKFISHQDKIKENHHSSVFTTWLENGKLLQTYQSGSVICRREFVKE
In words: fluorescence displacement of […],8-ANS. The class given is binding.

For the next experiment, the target named is T2, NHR-80 (Caenorhabditis elegans, UniProt Q8ITW8).
T2 sequence (Q8ITW8 1-504): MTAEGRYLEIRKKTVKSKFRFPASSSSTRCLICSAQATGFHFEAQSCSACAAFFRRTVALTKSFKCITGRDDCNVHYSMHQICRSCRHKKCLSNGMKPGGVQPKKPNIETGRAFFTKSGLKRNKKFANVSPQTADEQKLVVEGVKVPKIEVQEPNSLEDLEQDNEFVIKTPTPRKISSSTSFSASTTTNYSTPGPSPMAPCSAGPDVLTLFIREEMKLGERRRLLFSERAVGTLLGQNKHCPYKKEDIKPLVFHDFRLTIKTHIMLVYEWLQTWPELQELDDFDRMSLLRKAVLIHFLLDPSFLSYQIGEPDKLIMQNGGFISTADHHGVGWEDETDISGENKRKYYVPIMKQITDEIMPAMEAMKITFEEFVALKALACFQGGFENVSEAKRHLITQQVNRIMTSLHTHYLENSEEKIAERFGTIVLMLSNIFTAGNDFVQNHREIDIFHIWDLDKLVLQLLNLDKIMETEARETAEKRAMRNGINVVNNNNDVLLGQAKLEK
The experiment is described as follows: intrinsic fluorescence quenching of GST-NHR-80 with increasing OEA. The class given is binding.

`CCCCC/C=C\C/C=C\C/C=C\C/C=C\CCCC(=O)O` [AA, arachidonic acid]: the “fluorescence displacement of 1,8-ANS” value on LBP-8 is given as “In fluorescence-based binding assays, all four lipids bound to LBP-8”.
Broadly, the Kd is the free concentration of one partner at which half of the binding sites on the other are occupied at equilibrium, for simple one-to-one binding. In the case of `CCCCCCCC/C=C\CCCCCCCC(=O)NCCO` [OEA, oleoylethanolamide], the Kd on NHR-80 was determined as 7.84 µM.
Take `CCCCC/C=C\C/C=C\C/C=C\CCCCCCC(=O)O` [DGLA, dihomo-γ-linolenic acid]: the “fluorescence displacement of 1,8-ANS” value at LBP-8 was “In fluorescence-based binding assays, all four lipids bound to LBP-8”.
The same measure, in the same setting: for `CC/C=C\C/C=C\C/C=C\C/C=C\CCCCCCC(=O)O` [ω-3 AA, ω-3 arachidonic acid] the value was “In fluorescence-based binding assays, all four lipids bound to LBP-8”.

The values above are taken from paper PMC4425353 (Science (New York, N.Y.), 2015).
